Laboratory results reported in the NIST ThermoML archive (doi:10.1021/acs.jced.5b00260).

Assay: mn = molality of the nth substance listed, in mol/kg
Settings: 100 kPa, Liquid, Vibrating tube method

C[C@H](N)C(=O)O [(S)-2-aminopropanoic acid] + O
mass density [kg/m3]
Settings	m1 = 0.1	m1 = 0.2	m1 = 0.3	m1 = 0.4
298.2 K	999.9	1002.7	1005.5	1008.2
303.2 K	998.4	1001.9	1004.1	1006.8
308.2 K	996.8	1000.1	1002.3	1004.1
